For this assay, the target named is T1, TOP1 (Homo sapiens, UniProt P11387).
T1 construct: endogenous in cells; host or cells: ZR-75-1 and its shRNA clones
T1 sequence (P11387 1-765): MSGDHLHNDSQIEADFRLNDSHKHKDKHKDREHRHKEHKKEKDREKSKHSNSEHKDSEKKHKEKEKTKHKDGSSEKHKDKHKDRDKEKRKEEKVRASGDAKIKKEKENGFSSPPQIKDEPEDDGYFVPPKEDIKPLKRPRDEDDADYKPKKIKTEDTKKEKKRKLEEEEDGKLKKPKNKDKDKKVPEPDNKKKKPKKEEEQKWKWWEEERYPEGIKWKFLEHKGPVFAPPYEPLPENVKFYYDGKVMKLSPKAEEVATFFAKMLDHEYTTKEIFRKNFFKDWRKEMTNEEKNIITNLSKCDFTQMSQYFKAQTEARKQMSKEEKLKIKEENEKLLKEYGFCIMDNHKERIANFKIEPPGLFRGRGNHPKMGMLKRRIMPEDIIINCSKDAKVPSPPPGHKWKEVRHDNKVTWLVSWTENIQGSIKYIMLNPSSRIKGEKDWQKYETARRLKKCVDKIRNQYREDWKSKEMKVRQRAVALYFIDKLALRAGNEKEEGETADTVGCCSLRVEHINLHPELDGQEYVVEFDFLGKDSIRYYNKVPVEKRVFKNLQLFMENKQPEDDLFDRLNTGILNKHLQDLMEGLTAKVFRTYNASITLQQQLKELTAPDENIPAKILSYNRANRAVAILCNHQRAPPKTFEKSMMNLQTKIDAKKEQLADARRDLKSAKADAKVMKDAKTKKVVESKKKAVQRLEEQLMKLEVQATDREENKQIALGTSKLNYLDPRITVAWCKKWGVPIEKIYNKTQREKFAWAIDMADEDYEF
Description: Immunoblotting assay for CPT-induced TOP1 degradation. The class given is cell-based. The note with it: CPT 25 μM. As for the experimental part: Band depletion assay for TOP1 cleavage complexes. Cells (106/sample) are treated with CPT (25 μM in 1% DMSO) for various times at 37° C. Cells are then lysed with 0.2 N NaOH containing 2 mM EDTA as described previously (14). Cell lysates are then neutralized with 1/10 volume of a solution containing 10% NP-40, 1 M Tris (pH 7.4), 0.1 M MgCl2, 0.1 M CaCl2, 10 mM dithiothreitol, 1 mM EGTA, and a mixture of peptide protease inhibitors (100 μg/ml each of leupeptin, pepstatin, and aprotinin), followed by the addition of another 1/10 volume of 2 N HCl. Reactions are terminated by the addition of SDS-PAGE sample buffer. Immunoblotting analysis of cell lysates is carried out using anti-Scl-70 antibody from scleroderma patients as described above.
Immunoblotting assay for CPT-induced TOP1 degradation. Cells are prepared for immunoblotting as described above with two modifications. First, cells are incubated in CPT-free medium for 30 min prior to lysis (to reverse TOP1 cleavage complexes and to de-conjugate TOP1-ubiquitin and TOP1-UBL conjugates). Second, neutralized cell lysates are incubated with Staphylococcus aureus nuclease S7 (60 U/reaction) for 20 min on ice (to release TOP1 from residual TOP1-DNA covalent complexes) prior to termination with SDS-PAGE sample buffer.
Example No. 3. […] Panel A, Reduced ISG15 expression in ZR-75-1 cells expressing ISG15 shRNA. Cell lysates of ZR-75-1 clones expressing either control shRNA (lane #1) or ISG15 shRNA (lanes #2) are analyzed by 15% SDS-PAGE. Western blotting analysis is performed using anti-ISG15 antisera (upper panel). […] Panel B, CPT sensitivity. Clonogenic survival assay is carried out as described in Materials and Methods. Colonogenic survival curves of a ZR-75-1 clone expressing control shRNA and ISG15 shRNA after CPT treatment is shown. Mean±SD values from at least two experiments are presented. Panel C, CPT-induced TOP1 down-regulation. ZR-75-1 cells stably transfected with control shRNA (lanes 1-4) or ISG15 shRNA (lanes #5-8) (10^6 cells/sample) are treated with either DMSO (lanes #1 and 5) or CPT (25 μM in 1% DMSO) (lanes #2-4 and 6-8) for various times at 37° C. Subsequently, cells are placed in fresh CPT-free media for 30 min to reverse cleavable complexes. Cell lysis and immunoblotting using anti-hTOP1 antisera are carried out as described in FIG. 1 (upper panels).
Example No. 4. […] Panel A, the reduced UbcH8 protein level in ZR-75-1 cells expressing UbcH8 shRNA. Cell lysates prepared from ZR-75-1 clones expressing either control shRNA (lane #1) or UbcH8 shRNA (lanes #2 and 3, from two independent clones), and the purified UbcH8 protein (lane #4) are analyzed by 15% SDS-PAGE. Western blotting analysis is performed using anti-UbcH8 antibody (Abeam). […] Panel B, UbcH8 shRNA decreases ISG15 conjugation in ZR-75-1 cells. Cell lysates prepared from ZR-75-1 clones expressing either control shRNA (lane #1) or UbcH8 shRNA (lanes #2 and 3, two independent clones), and the purified UbcH8 protein (lane #4) are analyzed by 15% SDS-PAGE. Western blotting analysis is performed using anti-ISG15 antibody. The non-specific bands are due to the crossreactivity of the ISG15 antibody to bovine serum albumin. Panel C, knocking down UbcH8 confers CPT resistance. ZR-75-1 clones expressing control shRNA and UbcH8 shRNA (two independent clones) are treated with CPT and cell survival is measured as described in Example 3. Panels D-F, CPT-induced TOP1 down-regulation is […] in ZR-75-1 cells expressing UbcH8 shRNA. Clonal cells of ZR-75-1 expressing control (panel D) or UbcH8 shRNA (panels E and F, representing two independent clones) (10^6/sample) are treated with either DMSO (lanes #1, 5, and 9) or CPT (25 μM in 1% DMSO) (lanes #2-4, 6-8, and 10-12) for various times at 37° C. Cells are then placed in fresh CPT-free media for 30 min to reverse cleavage complexes. Cell lysis and immunoblotting using anti-hTOP1 antibody are carried out as described in Example 1.
In general terms: A western blot detects proteins with antibodies after separation by electrophoresis.

With `CC[C@@]1(O)C(=O)OCc2c1cc1n(c2=O)Cc2cc3ccccc3nc2-1` [CPT, camptothecin], the TOP1 down-regulation result is given as “increased” (MCF7/RC cells); “about 50%” (ZR/ISG15-shRNA1 cells, 2 hrs); “minimal” (ZR/control-shRNA1 cells); “minimal” (ZR/control-shRNA2 cells); “minimal” (parental MCF7 cells). Further, the “degradation of TOP1” value runs as follows: (ZR/UbcH8-shRNA1 cells, 2 hrs) “about 50%”; (ZR/UbcH8-shRNA2 cells, 2 hrs) “about 50%”.

Values taken from patent publication US20100111874A1, “METHOD OF CANCER DETECTION AND TREATMENT” (University of Medicine and Dentistry of New Jresey, priority 2007, published 2010).
